The subject of one assay is P. stutzeri cells. As to the kind of experiment: Fluorometry of P. stutzeri cells labeled with peptide-QD525 conjugates. To be noted: emission peak at 525 nm, 1×10^9 P. stutzeri cells. In kind it is cell-based. Here is the method:
The emission peak fluorescence at 525 nm of 1×10^9 P. stutzeri cells labeled with peptide-QD525 conjugates was measured in a fluorometer and relative fluorescence units (“RFIU”) were compared (Table 6 and 7, above). Peptides OBP11 and OBP12 targeting OprF, and peptide OPP1 targeting Opr86 presented fluorescence levels that greatly surpassed the other selected peptides for the respective target. OPP1, OBP11, and OBP12 were selected for further characterization and validation.
(§1) Bacterial stocks for experimentation were prepared by harvesting overnight grown bacterial cells by centrifugation at 11000×g for 15 min (at 4° C.), washed once with 1×PBS, pH 7.2, and re-suspended in 1×PBS to a concentration of 1×10^9 cells/mL. Bacterial titers were determined by measuring optical density at 600 nm and confirmed by colony counting on LB agar plates. Cell pellets produced by centrifuging 1 mL of the 1×10^9 cells/mL stock were re-suspended in 38 μL of 1×PBS and 62 μL of 2.4 μM peptide-QD was added to a final concentration of 1.5 μM. Cells were incubated for 30 min at 25° C. Cell pellets were washed three-times with 0.5 mL PBS and re-suspended in 500 μL PBS for fluorescence assays and imaging. Dilutions ranging from 1×10^9 cells to 1×10^4 cells were prepared using standard bacteriological techniques and 0.5 mL samples were used for fluorescence measurements.
(§2) Emission spectra were obtained using Cary Eclipse Fluorimeter with excitation at 330 nm, scan rate of 120 nm/imin, and PMT voltage of 1000V. Spectra were corrected for background and dilution factor when appropriate.

A further assay concerns Opr86. Put plainly: Solution biopanning against biotinylated Opr86 extracellular loop fragment, three rounds of selection. Type of assay: binding, P. aeruginosa. The note with it: Bushnell-Haas pH 8.5 with 1% Jet-A. As to the method:
Generally, solution-phase biopanning was carried out as described by the manufacturer (New England Biolabs, Ipswich, Mass.) with some modifications, including the changing of pH from 7.0 to 5.5 and 8.5 and adding 1% v/v of Jet A fuel. The first round of selection was carried out by diluting Ph.D.-7 bacteriophage library 100-fold in 0.1% Tris buffer saline plus Tween 20 (0.1% TBST) at the appropriate pH for selection plus fuel. Subsequently, the phage library was incubated with 1 μg of N-terminal biotinylated target protein fragment (OprF1: […] (SEQ. ID No. 1), OprF2: ADIKNLADFMK QYPSTSTT (SEQ. ID No. 2), Opr86: […] STP (SEQ. ID No. 3)) for 1 hr at 25° C. Phage-protein complexes were captured with 50 μL of streptavidin magnetic microbeads, unbound phages were removed, and the pellet sample washed 10-times with 1 mL of 1× Tris buffer saline (“TBS”) plus 0.05% TBST to remove weakly bound phage particles. Bound bacteriophages were eluted from the beads by lowering the pH (0.2 M Glycine-HCl, pH 2.2) while rotating gently for 10 min at 25° C. After neutralization with 1 M Tris-HCl, pH 9.1, eluted phages were amplified by infection of E. coli strain ER 2738 grown in Luria-Bertani (“LB”) broth medium until early-log phase (OD600 0.1-0.5). Titer of the amplified phage (more than 10^10 pfu/mL) was determined by infection into E. coli ER2738 and subsequent growth in selective medium containing X gal/IPTG. Amplified phages from round 1 were pre-cleared with streptavidin-coated magnetic microbeads (50 μL) to further remove non-specific binders and then used as the input phage for round 2 of selection. Enrichment of the bacteriophage pool was achieved by performing […] of selection under the appropriate pH plus jet fuel condition. Genomic DNA from individual clones was sequenced by GenScript (Piscataway, N.J.).
The particular region of the Opr86 extracellular loop of sequence […] (SEQ. ID No. 3) was chemically synthesized with a biotin capture element and used as target epitope for BRE development in solution biopanning in Bushnell-Haas, pH 8.5, supplemented with 1% Jet-A. Following the previously established procedure for OprF, several unique Opr86 peptide BREs (“OPPs”) were identified after three rounds of selection (Table 7, above).

In assay [1] the target is biotinylated bovine serum albumin (BSA) (Bos taurus, UniProt P02769). As to the kind of experiment: Biopanning against biotinylated BSA to identify target-unrelated peptides. In kind it is binding. To be noted: phage displaying the peptide, round 3. The source says: The phage library was then screened to identify target-unrelated peptides by using biotinylated bovine serum albumin (“BSA”) as a target for biopanning.

Assay [2] has as its system Gram negative (P. stutzeri, P. alkaligenes, P. aeruginosa, A. venetianus) and Gram positive (Arthrobacter sp., Lynsinibacillus sp.) bacteria. As to the kind of experiment: Fluorescence microscopy of fuel degrading bacteria labeled with peptide BRE-QD545. The note with it: 1×10^9 cells, QD545, 1.5 μM. In kind it is cell-based. Here is the method:
(§3) To characterize the specificity of the peptide BRE-QD545 conjugates for the intended bacterial groups, fluorescence imaging and fluorometric analysis were performed using different Gram negative and Gram positive fuel degrading bacteria. As such, cultures comprising 1×10^9 cells of Gram negative bacteria (P. stutzeri, P. alkaligenes, P. aeruginosa and A. venetianus) and Gram positive bacteria (Arthrobacter sp. and Lynsinibacillus sp.) were labeled with OPP1, OBP11 and OBP12 biofunctionalized QD545 and visualized using fluorescence microscopy (FIGS. 5-10) and the fluorescence quantified using a fluorometer (FIG. 11).
as §1
10 μL of the prepared sample was placed on a microscope slide, covered with a coverslip, and visualized on an Nikon Eclipse Ti-E inverted microscope equipped with X-Cite LED lamp, a fluorescence filter set (a bandpass exciter 405 nm and a longpass emission filter), a 1.25-numerical-aperture oil-immersion objective (DPlan 100×, Nikon). Images were captured by Nikon DS-sCMOS camera.

In assay [3] the test system is Gram negative bacteria (A. venetianus and Pseudomonas spp.). As to the kind of experiment: Fluorometry of fuel degrading bacteria labeled with peptide-QD545 conjugates (FIG. 11). Type of assay: cell-based. The note with it: for detection of Gram negative bacteria by fluorometer: 1×10^9 cells, QD545 conjugates, FIG. 11. Here is the method: as §3, §1, §2
In another assay the test system is P. stutzeri. Put plainly: Detection of bacteria recovered from spiked 1 L Jet A fuel with peptide-QD545 (LOD, fluorescence). Type of assay: cell-based. The note with it: for LOD (CFU) / Fluorescence (RFU): 1 L Jet A; for LOD (CFU): 1.5 μM peptide-QD; for detection possible down to, in some instances: below reproducible LOD; for Fluorescence (RFU): at LOD. As to the method:
(§4) To test the applicability of the peptide BRE-QD chemistry in the detection of bacteria in fuel and characterize the LOD in such system, bacterial cells from 1 L jet fuel samples spiked with different levels of bacteria were recovered, labeled, and detected.
(§5) One liter Jet A fuel samples were amended with 1 mL of 1×PBS containing either A. venetianus ATCC 31012 or P. stutzeri at the appropriate test concentration was added to 1 L of Jet A fuel. The inoculated jet fuel samples were thoroughly mixed by vortex for 1 min and allowed to stand for 20 min to 30 min. To recover the cells, 1 mL of 1×PBS, named bacterial recovery solution (“BRS”), was added to the jet fuel samples, the samples shaken by hand, allowed stand for 5 min, and, then, 1 mL of the aqueous phase was collected using a long serological pipette. The 1 mL of solution with bacteria was centrifuged for 5 min at 11000×g, and washed three times with 1 mL of 1×PBS. Bacterial pellets were individually labeled using a final concentration 1.5 μM peptide-QD. The LOD was defined as the lowest concentration level that could be determined to be statistically different from QD labeled cells from the results of multiple testers. The actual cell level (colony-forming units, “CFU”) detected was determined by plating a portion of the sample after being subjected to the labeled procedure.
(§6) Cells in the 1 L of fuel were recovered with 1 mL of BRS. Efficient labeling of the bacteria was indicated by high levels of fluorescence detected from the cell wall by fluorescence microscopy (FIG. 13 and Table 10, below). FIG. 14 is a similar image but of fungus (Hormoconis) labeled by peptide-QD605. The LOD was reliably determined from assays performed by multiple testers.

The subject of a further assay is A. venetianus ATCC 31012. The description is as above. Type of assay: cell-based. To be noted: for LOD (CFU): 1.5 μM peptide-QD; for detection possible down to, in some instances: below reproducible LOD. Here is the method:
as §4, §5, §6

From patent publication US10295537B2, “Biorecognition elements for rapid detection of biocontamination” (The United States of America, as represented by the …, priority 2017, dated 2019) come the findings set out here.

Ends that are not written are not given here.

Sequence of biotinylated bovine serum albumin (BSA) (P02769 25-607): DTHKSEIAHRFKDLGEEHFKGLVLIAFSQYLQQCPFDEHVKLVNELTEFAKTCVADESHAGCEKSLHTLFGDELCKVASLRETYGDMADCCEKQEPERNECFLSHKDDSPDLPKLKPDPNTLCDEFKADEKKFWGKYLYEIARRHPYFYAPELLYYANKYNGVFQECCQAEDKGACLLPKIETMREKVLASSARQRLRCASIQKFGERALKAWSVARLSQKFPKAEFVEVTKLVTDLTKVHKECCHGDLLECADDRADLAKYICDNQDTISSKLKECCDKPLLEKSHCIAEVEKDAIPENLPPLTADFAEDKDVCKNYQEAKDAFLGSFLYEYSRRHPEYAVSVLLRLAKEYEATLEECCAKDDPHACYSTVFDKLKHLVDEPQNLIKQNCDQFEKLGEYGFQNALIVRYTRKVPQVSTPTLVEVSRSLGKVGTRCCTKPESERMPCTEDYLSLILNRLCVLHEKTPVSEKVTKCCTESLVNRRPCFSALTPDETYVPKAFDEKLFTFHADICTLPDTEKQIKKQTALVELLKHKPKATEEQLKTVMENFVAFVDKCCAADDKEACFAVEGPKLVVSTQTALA

Take “I I T M K R R (IITMKRR; Artificial sequence obtained through biopanning.) [OPP5, Opr86 peptide BRE]”: the “Fluorescence (RFU)” value in the assay on P. stutzeri cells stood at 4408 ± 225 RFU. The “% Abundance” value with Opr86 stood at 3%.
With “IQTNPTM (Artificial sequence obtained through biopanning.)”, the “cross-reaction with BSA” value in assay [1] is “cross-react with BSA”.
Turning to “L P S T I H R (LPSTIHR; Artificial sequence obtained through biopanning.) [OPP3, Opr86 peptide BRE]”, the “Fluorescence (RFU)” value in the assay on P. stutzeri cells was 2251 ± 63 RFU. Moreover, in the assay with Opr86, the “% Abundance” value was 2%.
For “L R P L M N R (LRPLMNR; Artificial sequence obtained through biopanning.) [OPP4, Opr86 peptide BRE]” the same measures were 1383 ± 74 RFU and 3%.
Turning to “M H N L N L L (MHNLNLL; Artificial sequence obtained through biopanning.) [OPP2, Opr86 peptide BRE]”, the “Fluorescence (RFU)” value in the assay on P. stutzeri cells is on record as 1847 ± 52 RFU. For the same substance, the “% Abundance” value in the assay on Opr86 was 2%.
For the substance “NMTNPPP (Artificial sequence obtained through biopanning.) [OBP6]”, the “Fluorescence (RFU)” value in the assay with P. stutzeri cells is given as 2080 ± 280 RFU.
Regarding “P R I R K S H (PRIRKSH; Artificial sequence obtained through biopanning.) [OPP1, Opr86 peptide BRE]”, the “Fluorescence (RFU)” value in the assay on P. stutzeri cells is 12258 ± 2060 RFU. In addition, the “labeling of bacteria in fluorescence micrographs” value (from here on “labeling of bacteria”) in assay [2] is on record as “specifically labeled Gram negative bacteria but not the Gram positive bacteria”. For the same substance, in the assay with Opr86, the “% Abundance” value is on record as 3%.
“PIKTNRK (Artificial sequence obtained through biopanning.) [OBP11]”: the “Fluorescence (RFU)” value with P. stutzeri cells is 5308 ± 501 RFU. In addition, the “detection of Gram negative bacteria by fluorometer” value (“detection of Gram negative bacteria” for short) in assay [3] is listed as “able to detect all Gram negative bacteria tested”. The “labeling of bacteria” value in assay [2] was “specifically labeled Gram negative bacteria but not the Gram positive bacteria”.
For the substance “PKRTPRH (Artificial sequence obtained through biopanning.) [OBP12]”, the “Fluorescence (RFU)” value in the assay with P. stutzeri cells is recorded as 6443 ± 957 RFU. Moreover, the “detection of Gram negative bacteria” value in assay [3] is “able to detect all Gram negative bacteria tested”. Moreover, the “LOD of P. stutzeri compared among all the BREs” value in assay [3] (P. stutzeri) is reported as “highest LOD”. Moreover, the “labeling of bacteria” value in assay [2] is “specifically labeled Gram negative bacteria but not the Gram positive bacteria”.
Take “QD545-OBP11: peptide OBP11 conjugated to quantum dot QD545 (PIKTNRK; also: conjugated to quantum dot QD545)”: in the assay with P. stutzeri, the LOD was 5×10^5 CFU/mL of BRS; the “LOD (CFU)” value is 5 × 10^5 CFU; the “detection possible down to, in some instances” value is recorded as 5×10^4 CFU/mL of BRS. Besides, in the assay with A. venetianus ATCC 31012, the LOD was 5×10^5 CFU/mL of BRS and the “detection possible down to, in some instances” value is 5×10^4 CFU/mL of BRS. Moreover, in the assay on A. venetianus ATCC 31012 (1 L Jet A), the “LOD (CFU)” value is recorded as 5 × 10^5 CFU.
As for “QD545-OBP12: peptide OBP12 conjugated to quantum dot QD545 (PKRTPRH; also: conjugated to quantum dot QD545)”, in the assay on P. stutzeri, the LOD is reported as 5×10^5 CFU/mL of BRS; the “LOD (CFU)” value is on record as 5 × 10^5 CFU; the “Fluorescence (RFU)” value is reported as 12,205 RFU; the “detection possible down to, in some instances” value is recorded as 5×10^4 CFU/mL of BRS. Besides, in the assay with A. venetianus ATCC 31012, the LOD is 5×10^5 CFU/mL of BRS and the “detection possible down to, in some instances” value was 5×10^4 CFU/mL of BRS. For the same substance, the “LOD (CFU)” value in the assay with A. venetianus ATCC 31012 (1 L Jet A) is 5 × 10^5 CFU.
Consider “QD545-OPP1: peptide OPP1 conjugated to quantum dot QD545 (PRIRKSH; also: conjugated to quantum dot QD545)”, for which, in the assay on P. stutzeri, the LOD is reported as 5×10^4 CFU/mL of BRS; the “LOD (CFU)” value is reported as 5 × 10^5 CFU; the “Fluorescence (RFU)” value is 820 RFU; the “detection possible down to, in some instances” value is 5×10^3 CFU/mL of BRS. Besides, in the assay on A. venetianus ATCC 31012, the LOD is given as 5×10^4 CFU/mL of BRS and the “detection possible down to, in some instances” value is 5×10^3 CFU/mL of BRS. Besides, the “LOD (CFU)” value in the assay on A. venetianus ATCC 31012 (1 L Jet A) is recorded as 5 × 10^5 CFU. Besides, the “Fluorescence (RFU)” value with A. venetianus ATCC 31012 (1 L Jet A, at LOD) is reported as 773 RFU. The “detection of Gram negative bacteria” value in assay [3] is listed as “high fluorescence levels with all Gram negative bacteria tested”.
Take “QITLRST (Artificial sequence obtained through biopanning.) [OBP7]”: in the assay on P. stutzeri cells, the “Fluorescence (RFU)” value is 2625 ± 543 RFU.
Consider “QMLLRLP (Artificial sequence obtained through biopanning.) [OBP9]”, for which, in the assay with P. stutzeri cells, the “Fluorescence (RFU)” value is reported as 3338 ± 590 RFU.
Take “R K K S R I R (RKKSRIR; Artificial sequence obtained through biopanning.) [OPP6, Opr86 peptide BRE]”: the “Fluorescence (RFU)” value in the assay with P. stutzeri cells was 4126 ± 98 RFU. For the same substance, the “% Abundance” value with Opr86 was found to be 2%.
As to “RRSNSQL (Artificial sequence obtained through biopanning.) [OBP4]”, the “Fluorescence (RFU)” value in the assay with P. stutzeri cells stood at 4520 ± 473 RFU.
